Experimental data: ChEMBL document CHEMBL3785054, “Identification of inhibitors for vascular endothelial growth factor receptor by using dynamic combinatorial chemistry” (Bioorg Med Chem Lett, 2016)
Active and inactive are the calls of the source. The calls are words filed in the database; no cut-off is given here.

Assays:
A549 = assay: Cytotoxicity against human A549 cells by MTT assay; assay type: functional, cell-based
[1] = Cytotoxicity against human PC3 cells by MTT assay; assay type: functional, cell-based; conditions: PC-3
MDA-MB-435 = assay: Cytotoxicity against human MDA-MB-435 cells by MTT assay; assay type: functional, cell-based
HT-29 = assay: Cytotoxicity against human HT-29 cells by MTT assay; assay type: functional, cell-based
[2] = Cytotoxicity against human […] cells by MTT assay; assay type: functional, cell-based
[3] = Cytotoxicity against human BGC823 cells by MTT assay; assay type: functional, cell-based; conditions: BGC-823
Chorioallantoic membrane = assay: Antiangiogenic activity in chicken chorioallantoic membrane assessed as inhibition of vascular branch formation after 3 days; assay type: functional; conditions: Gallus gallus

Row | SMILES | IC50 (A549) [µM] | IC50 [1] [µM] | IC50 (MDA-MB-435) [µM] | IC50 (HT-29) [µM] | IC50 [2] [µM] | IC50 [3] [µM] | inhibition (Chorioallantoic membrane) | inhibition (Chorioallantoic membrane; dose or concentration not given here) [%]
1 | CCN(CC)CCNC(=O)c1c(C)[nH]c(/C=C2\C(=O)Nc3ccc(F)cc32)c1C [SUNITINIB] | 9.1 | 55.6 | 9.3 | 1.7 |  |  |  | 
2 | CC1CC(=O)NN=C1c1ccc(NC(=O)Nc2ccc3c(/C=N/c4nccs4)n[nH]c3c2)cc1 (stereo unspecified) | 8.9 | 5.6 | 22.7 | 12.8 | 11.2 | 78 |  | 
3 | O=C(Nc1ccc2c(/C=N/c3ccccn3)n[nH]c2c1)Nc1nncs1 | 56.4 | > 100 | 4.8 | 9.4 | > 100 | > 100 | Active | 
4 | O=C(Nc1ccc2c(/C=N/c3cccnc3)n[nH]c2c1)Nc1nncs1 | 2.4 | 7.8 | 55.6 | 12.1 | > 100 | 67.2 | Active | 
5 | O=C(Nc1ccc2c(/C=N/c3ncccn3)n[nH]c2c1)Nc1nccs1 | 19.6 | 6.8 | 55.2 | 78.6 | 15.4 | 12.8 |  | 51.6
